Test results as given in patent US20050171171A1, “Amide derivatives as FLT-3 modulators” (Ambit Biosciences Corporation, priority 2003, published 2005).

What was measured:
FLT3(DKIN) = molecular target: T1, FLT3(DKIN) (Homo sapiens, UniProt P36888); test: Binding Assay: FLT3(DKIN), phage-displayed kinase competition binding (Kd)
T1 construct: 3(DKIN); made in house
T1 sequence (P36888 610-943 limits assumed): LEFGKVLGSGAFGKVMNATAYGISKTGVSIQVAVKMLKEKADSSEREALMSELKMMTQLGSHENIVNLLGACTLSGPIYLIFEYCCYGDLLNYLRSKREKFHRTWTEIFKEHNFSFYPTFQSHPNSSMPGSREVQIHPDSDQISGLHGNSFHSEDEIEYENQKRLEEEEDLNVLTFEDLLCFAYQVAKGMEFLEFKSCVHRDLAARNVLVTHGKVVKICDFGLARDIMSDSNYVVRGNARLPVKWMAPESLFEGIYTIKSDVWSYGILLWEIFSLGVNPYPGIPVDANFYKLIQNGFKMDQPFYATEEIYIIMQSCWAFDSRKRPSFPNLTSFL
From the text: (§1) Binding Constant (Kd) Measurements for Small-Molecule-Kinase Interactions
(§2) The term “ND” represents non-determined values.

MV4,11 cells = test: Cell Assay: CS0001, FLT3 assay using MV4,11 cells (MTS proliferation); type: cell-based; conditions: Homo sapiens
Method: The ability of FLT3 kinase inhibitors to inhibit cellular proliferation was also examined. MV4:11 was a cell line derived from a patient with acute myelogenous leukemia. It expressed a mutant FLT3 protein that was constitutively active. […] Inhibition of FLT3 kinase activity prevented proliferation of these cells, and thus the MV4:11 cell line can be used a model for cellular activity of small molecule inhibitors of FLT3.
FLT3 Assay Using MV4,11 Cells
MV4,11 cells were grown in an incubator @ 37° C. in 5% CO2 in Medium 2 (RPM 10% FBS, 4 mM glutamine, Penn/Strep). The cells were counted daily and the cell density was kept between 1e5 and 8e5 cells/ml.
Day One: Enough cells were harvested for experiments to be conducted in 50 ml conical tubes. The harvested cells were spun at 500 g for 5 min at 4° C., the supernatant was then aspirated and the cells were resuspended in the starting volume of 1× PBS. The cells were again spun at 500 g for 5 min at 4° C. and the supernatant again aspirated. The cells were then resuspended in medium 3 (DMEM w/glut, 10% FBS, Penn/Strep) to a density of 4e5 cells/ml and incubated @ 37° C. in 5% CO2 O/N.
Day Two: The cells were counted and enough medium 3 was added to decrease density to 2e5 cells/ml. 50 ul (10,000 cells) was aliquoted into each well of a 96 well optical plate using multichannel pipetman. The compound plate was then set up by aliquoting 3 μl of negative control (DMSO) into column 1 of a 96 well 300 ul polypropylene plate, aliquoting 3 μl of positive control (10 mM AB20121) into column 12 of plate, and aliquoting 3 μl of appropriate compounds from serial dilutions into columns 2-11. To each well, 150 μl of Medium 3 was added and 50 μl of compound/medium mixture from compound plate into rows of optical plate in duplicate. The cells were then incubated @ 37° C. in 5% CO2 for 3 days.
Day Five: MTS was thawed in a H2O bath. 20 μl of MTS was added to each well of optical plate and the cells were incubated @ 37° C. in 5% CO2 for 2 hours. The plate was then placed on a plate shaker for 30 seconds on high speed.

Cell Assay: CS0002 = type: cell-based
FLT3(JMminus) = molecular target: T2, FLT3(JMminus) (Homo sapiens, UniProt P36888); test: Binding Assay: FLT3(JMminus), phage-displayed kinase competition binding (Kd)
T2 construct: "FLT 3(JMminus)"; fused on or other part: Fused to a T7 bacteriophage particle (phage display)
T2 sequence (P36888 610-943 limits assumed): T1 sequence (P36888 610-943 limits assumed)
From the text: as §1, §2

Row | Kd (FLT3(DKIN)) [µM] | IC50 (MV4,11 cells) [µM] | IC50 (Cell Assay: CS0002) [µM] | Kd (FLT3(JMminus)) [µM] | Structure (SMILES)
1 | < 0.1 | < 0.1 | – | – | CC(C)(C)c1cc(NC(=O)Cc2ccc(OCc3ccccc3)cc2)on1
2 | > 10 | – | – | – | Cc1csc(NC(=O)Cc2ccc(OCc3ccccc3)cc2)n1
3 | > 10 | 0.1 to 1 | – | – | CC(C)(C)c1cc(-c2nc(-c3ccc(OCc4ccccc4F)cc3)no2)no1
4 | > 10 | 0.1 to 1 | – | – | Cc1ccc(NC(=O)c2ccc(-c3noc(-c4cc(C(C)(C)C)on4)n3)cc2)cc1
5 | – | < 0.1 | > 10 | < 0.1 | CC(C)(C)c1cc(NC(=O)Cc2ccc(NC(=O)c3cnc4ccccc4c3)cc2)no1
6 | – | 0.1 to 1 | > 10 | < 0.1 | Cc1nn(C)c(Cl)c1C(=O)Nc1ccc(CC(=O)Nc2cc(C(C)(C)C)on2)cc1
7 | 0.1 to 1 | – | – | – | CC(C)(C)c1cc(NC(=O)Cc2ccc(O)cc2)no1
8 | > 10 | > 10 | – | – | CC(C)(C)c1cc(-c2nc(-c3ccc(Cl)cc3)no2)no1
9 | < 0.1 | – | – | – | CC(C)(C)c1cc(NC(=O)Cc2ccc(F)cc2)on1
10 | > 10 | 1 to 10 | – | – | CC(C)(C)c1cc(C(=O)Nc2ccc(OCC3CC3)cc2)no1
11 | < 0.1 | – | – | – | CC(C)(C)c1cc(NC(=O)Cc2ccc(Br)cc2)on1
12 | > 10 | – | – | – | O=C(Cc1ccc(OCc2ccccc2)cc1)Nc1nc(-c2ccc(Cl)cc2)cs1
13 | 0.1 to 1 | – | – | – | O=C(Cc1ccc(OCc2ccccc2)cc1)Nc1nc2cc(Cl)ccc2o1
14 | 1 to 10 | – | – | – | CC(C)(C)c1cc(NC(=O)Sc2ccc(Cl)cc2)no1
15 | – | 1 to 10 | > 10 | 0.1 to 1 | CC(C)(C)c1cc(NC(=O)Cc2ccc(NC(=O)c3cccc4cccnc34)cc2)no1
16 | – | < 0.1 | > 10 | < 0.1 | CSc1ncc(Br)c(C(=O)Nc2ccc(CC(=O)Nc3cc(C(C)(C)C)on3)cc2)n1

Row | Kd (FLT3(DKIN)) [µM] | IC50 (MV4,11 cells) [µM] | IC50 (Cell Assay: CS0002) [µM] | Kd (FLT3(JMminus)) [µM] | Structure (SMILES)
17 | > 10 | > 10 | – | – | Cc1cc(C)n(C(=O)Nc2ccc(Cl)cc2)n1
18 | > 10 | > 10 | – | – | Cc1noc(-c2ccc(-c3noc(-c4cc(C(C)(C)C)on4)n3)cc2)n1
19 | – | < 0.1 | > 10 | < 0.1 | CC(C)(C)c1cc(NC(=O)Cc2ccc(NC(=O)c3ccc4cnccc4n3)cc2)no1
20 | < 0.1 | – | – | – | CC(C)(C)c1cc(NC(=O)Cc2ccc(Cl)cc2)on1
21 | 0.1 to 1 | – | – | – | O=C(Cc1ccc(OCc2ccccc2)cc1)Nc1cc(C2CC2)nn1-c1ccccc1
22 | 1 to 10 | – | – | – | COc1ccc(SC(=O)Nc2cc(C(C)(C)C)on2)cc1
23 | 1 to 10 | 1 to 10 | – | – | CC(C)(C)c1cc(C(=O)Nc2ccc(OCc3ccccc3F)cc2)no1
24 | > 10 | – | – | – | O=C(Cc1ccc(OCc2ccccc2)cc1)Nc1nc2ccccc2s1
25 | > 10 | – | – | – | O=C(Cc1ccc(OCc2ccccc2)cc1)Nc1nc2ccc(F)cc2s1
26 | > 10 | 1 to 10 | – | – | CC(C)(C)c1cc(-c2nc(-c3ccc(O)cc3)no2)no1
27 | 1 to 10 | – | – | – | COc1ccc(CC(=O)Nc2cc(C3CC3)nn2-c2ccccc2)cc1
28 | – | < 0.1 | > 10 | < 0.1 | Cn1cc(C(=O)Nc2ccc(CC(=O)Nc3cc(C(C)(C)C)on3)cc2)c2ccccc21
29 | > 10 | – | – | – | COc1cccc2sc(NC(=O)Cc3ccc(OCc4ccccc4)cc3)nc12
30 | 1 to 10 | 1 to 10 | – | – | CC(C)(C)c1cc(/C=N/C(=N\O)c2ccc(Cl)cc2)no1
31 | < 0.1 | – | – | – | COc1ccc(CC(=O)Nc2cc(C(C)(C)C)no2)cc1
32 | > 10 | – | – | – | Cc1cnc(NC(=O)Cc2ccc(OCc3ccccc3)cc2)s1
